Experimental data published in ChEMBL document CHEMBL1909046, “DrugMatrix in vitro pharmacology data”.
*1 amine or outer side, *2 acyl side, *3 side chain or, on linkers, in order; H or OH if unused. Where a SMILES comes first, the peptide text is derived from it. Bridges are numbered along the chain shown (N, C = ends). Roman numbers before positions name the chains, in order. [ ]: non-standard residue; d: D form. Actinocin(1to9) = Cc1c2oc3c(C)ccc(C(=O)[*:2])c3nc-2c(C(=O)[*:1])c(N)c1=O; NMeV = CN[C@H](C(=O)O)C(C)C; Sar = CNCC(=O)O

Legend:
Mu-type opioid receptor = Mu-type opioid receptor (Homo sapiens, UniProt P35372); assay: DRUGMATRIX: Opiate mu (OP3, MOP) radioligand binding (ligand: [3H] Diprenorphine); format: cell membranes, CHO-K1, Membrane; details: cho-k1; Not Active = under 50% inhibition at 10 µM
Sequence of Mu-type opioid receptor (P35372 whole entry): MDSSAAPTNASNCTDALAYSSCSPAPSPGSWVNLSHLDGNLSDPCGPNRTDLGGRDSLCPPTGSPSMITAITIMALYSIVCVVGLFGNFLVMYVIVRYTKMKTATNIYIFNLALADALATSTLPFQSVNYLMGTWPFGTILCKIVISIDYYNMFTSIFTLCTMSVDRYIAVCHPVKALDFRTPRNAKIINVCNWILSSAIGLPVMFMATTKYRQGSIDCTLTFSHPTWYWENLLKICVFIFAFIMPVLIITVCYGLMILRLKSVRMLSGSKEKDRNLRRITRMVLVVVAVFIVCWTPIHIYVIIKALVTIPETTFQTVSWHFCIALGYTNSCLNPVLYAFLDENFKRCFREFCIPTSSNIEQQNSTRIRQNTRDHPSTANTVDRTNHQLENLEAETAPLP

Estrogen receptor = molecular target: T1, Estrogen receptor (Homo sapiens, UniProt P03372); details: sf9; further: in other assays of this panel Not Active means under 50% inhibition at 10 µM
T1 sequence (P03372 whole entry): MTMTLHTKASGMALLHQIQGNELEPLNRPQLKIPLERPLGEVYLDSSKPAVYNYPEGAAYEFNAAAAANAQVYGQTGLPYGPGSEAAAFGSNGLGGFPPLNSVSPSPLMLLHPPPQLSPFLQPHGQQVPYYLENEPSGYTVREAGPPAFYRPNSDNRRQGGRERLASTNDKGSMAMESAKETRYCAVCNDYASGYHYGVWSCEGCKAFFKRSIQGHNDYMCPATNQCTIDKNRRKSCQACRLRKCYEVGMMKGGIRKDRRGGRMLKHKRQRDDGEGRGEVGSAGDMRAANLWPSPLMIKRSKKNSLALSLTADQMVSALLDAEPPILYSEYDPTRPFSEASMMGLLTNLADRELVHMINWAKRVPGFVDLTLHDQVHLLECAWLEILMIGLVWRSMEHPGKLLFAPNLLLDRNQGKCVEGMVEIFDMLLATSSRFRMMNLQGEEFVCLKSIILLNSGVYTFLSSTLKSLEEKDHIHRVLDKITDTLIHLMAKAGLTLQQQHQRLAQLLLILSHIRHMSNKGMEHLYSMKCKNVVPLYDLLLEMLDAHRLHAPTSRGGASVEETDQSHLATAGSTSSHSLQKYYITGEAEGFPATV

[1] = molecular target: T2, 5-hydroxytryptamine receptor 1A (Rattus norvegicus, UniProt P19327); format: cell membranes, CHO-K1, Membrane; details: cho-k1; further: in other assays of this panel Not Active means under 50% inhibition at 10 µM
T2 sequence (P19327 whole entry): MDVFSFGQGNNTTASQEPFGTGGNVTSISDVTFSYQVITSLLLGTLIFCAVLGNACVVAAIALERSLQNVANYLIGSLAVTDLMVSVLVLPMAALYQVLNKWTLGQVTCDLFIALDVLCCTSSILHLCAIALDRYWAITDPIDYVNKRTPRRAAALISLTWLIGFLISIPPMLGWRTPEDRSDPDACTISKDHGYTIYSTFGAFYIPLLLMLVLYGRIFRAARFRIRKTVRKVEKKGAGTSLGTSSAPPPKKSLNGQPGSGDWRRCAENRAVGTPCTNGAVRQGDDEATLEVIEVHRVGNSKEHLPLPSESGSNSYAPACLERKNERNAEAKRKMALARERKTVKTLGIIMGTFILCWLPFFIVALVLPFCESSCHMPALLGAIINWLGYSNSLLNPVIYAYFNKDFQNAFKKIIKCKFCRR

Endothelin-1 receptor = molecular target: T3, Endothelin-1 receptor (Homo sapiens, UniProt P25101); format: cell membranes, CHO-K1, Membrane; details: cho-k1; further: in other assays of this panel Not Active means under 50% inhibition at 10 µM
T3 sequence (P25101 whole entry): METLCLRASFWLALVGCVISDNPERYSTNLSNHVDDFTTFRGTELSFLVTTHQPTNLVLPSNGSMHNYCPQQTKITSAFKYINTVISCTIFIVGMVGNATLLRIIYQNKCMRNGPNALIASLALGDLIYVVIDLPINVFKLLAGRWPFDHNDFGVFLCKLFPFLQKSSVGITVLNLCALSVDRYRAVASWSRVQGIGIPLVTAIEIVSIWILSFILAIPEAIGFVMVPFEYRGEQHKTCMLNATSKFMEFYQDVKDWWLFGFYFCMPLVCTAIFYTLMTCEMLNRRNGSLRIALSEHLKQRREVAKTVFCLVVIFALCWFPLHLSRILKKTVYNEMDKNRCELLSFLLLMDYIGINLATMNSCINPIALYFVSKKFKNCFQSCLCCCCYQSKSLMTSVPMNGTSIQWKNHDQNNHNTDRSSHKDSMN

[2] = molecular target: Receptor tyrosine-protein kinase erbB-2 (Homo sapiens, UniProt P04626); assay: biochemical; format: cell-based, Insect cells; details: insect cells;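 further: inhibition of HER2 kinase enzyme activity, measured with Poly(Glu:Tyr) as the phosphorylation substrate; in other assays of this panel Not Active means under 50% inhibition at 10 µM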
Sequence of Receptor tyrosine-protein kinase erbB-2 (P04626 whole entry): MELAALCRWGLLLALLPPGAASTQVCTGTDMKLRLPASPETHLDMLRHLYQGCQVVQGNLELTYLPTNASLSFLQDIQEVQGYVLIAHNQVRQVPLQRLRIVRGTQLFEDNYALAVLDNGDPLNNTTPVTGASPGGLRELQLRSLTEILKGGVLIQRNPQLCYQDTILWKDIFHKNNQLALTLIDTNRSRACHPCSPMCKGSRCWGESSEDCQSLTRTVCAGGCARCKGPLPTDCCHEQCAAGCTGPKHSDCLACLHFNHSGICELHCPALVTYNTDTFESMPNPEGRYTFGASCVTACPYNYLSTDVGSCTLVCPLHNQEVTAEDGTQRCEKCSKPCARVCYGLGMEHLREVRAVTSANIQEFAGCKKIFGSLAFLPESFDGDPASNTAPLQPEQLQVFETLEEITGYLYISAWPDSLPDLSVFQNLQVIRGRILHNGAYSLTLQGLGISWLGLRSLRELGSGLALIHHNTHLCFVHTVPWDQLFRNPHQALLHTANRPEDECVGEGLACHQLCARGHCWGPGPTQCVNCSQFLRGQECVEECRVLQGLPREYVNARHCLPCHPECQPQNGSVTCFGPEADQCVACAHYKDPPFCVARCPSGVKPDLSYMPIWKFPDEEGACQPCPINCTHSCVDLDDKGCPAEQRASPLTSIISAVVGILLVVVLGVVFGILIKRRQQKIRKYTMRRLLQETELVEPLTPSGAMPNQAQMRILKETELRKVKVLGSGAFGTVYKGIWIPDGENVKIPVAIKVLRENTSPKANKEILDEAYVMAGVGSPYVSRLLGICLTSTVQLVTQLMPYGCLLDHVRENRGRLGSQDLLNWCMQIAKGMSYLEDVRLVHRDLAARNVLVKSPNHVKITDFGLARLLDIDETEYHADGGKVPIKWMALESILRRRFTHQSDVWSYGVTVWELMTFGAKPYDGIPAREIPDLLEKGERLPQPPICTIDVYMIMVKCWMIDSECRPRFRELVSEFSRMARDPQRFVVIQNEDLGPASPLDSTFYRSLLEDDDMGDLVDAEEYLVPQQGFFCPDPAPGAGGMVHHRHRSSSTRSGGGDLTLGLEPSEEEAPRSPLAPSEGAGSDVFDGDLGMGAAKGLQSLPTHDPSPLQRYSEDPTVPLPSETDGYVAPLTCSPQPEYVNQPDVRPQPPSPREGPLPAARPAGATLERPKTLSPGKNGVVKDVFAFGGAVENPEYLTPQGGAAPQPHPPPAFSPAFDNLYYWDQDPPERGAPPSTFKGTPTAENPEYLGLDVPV

Adenosine receptor A2a = Adenosine receptor A2a (Homo sapiens, UniProt P29274); assay: DRUGMATRIX: Adenosine A2A radioligand binding (ligand: […]); format: cell membranes, Membrane; details: hek293; Not Active = under 50% inhibition at 10 µM
Sequence of Adenosine receptor A2a (P29274 whole entry): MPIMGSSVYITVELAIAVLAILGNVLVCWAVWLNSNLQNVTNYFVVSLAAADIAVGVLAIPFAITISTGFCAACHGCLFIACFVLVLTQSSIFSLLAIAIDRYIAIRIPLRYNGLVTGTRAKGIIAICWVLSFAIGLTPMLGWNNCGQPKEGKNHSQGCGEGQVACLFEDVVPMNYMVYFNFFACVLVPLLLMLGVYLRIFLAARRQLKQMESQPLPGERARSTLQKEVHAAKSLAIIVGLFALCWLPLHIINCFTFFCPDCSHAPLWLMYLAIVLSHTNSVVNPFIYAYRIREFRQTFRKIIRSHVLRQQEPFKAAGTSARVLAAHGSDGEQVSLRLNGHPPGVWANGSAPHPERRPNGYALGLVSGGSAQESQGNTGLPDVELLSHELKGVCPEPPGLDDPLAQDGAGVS

[3] = molecular target: T4, Angiotensin-converting enzyme (Oryctolagus cuniculus, UniProt P12822); format: tissue-based, Lung
T4 sequence (P12822 whole entry): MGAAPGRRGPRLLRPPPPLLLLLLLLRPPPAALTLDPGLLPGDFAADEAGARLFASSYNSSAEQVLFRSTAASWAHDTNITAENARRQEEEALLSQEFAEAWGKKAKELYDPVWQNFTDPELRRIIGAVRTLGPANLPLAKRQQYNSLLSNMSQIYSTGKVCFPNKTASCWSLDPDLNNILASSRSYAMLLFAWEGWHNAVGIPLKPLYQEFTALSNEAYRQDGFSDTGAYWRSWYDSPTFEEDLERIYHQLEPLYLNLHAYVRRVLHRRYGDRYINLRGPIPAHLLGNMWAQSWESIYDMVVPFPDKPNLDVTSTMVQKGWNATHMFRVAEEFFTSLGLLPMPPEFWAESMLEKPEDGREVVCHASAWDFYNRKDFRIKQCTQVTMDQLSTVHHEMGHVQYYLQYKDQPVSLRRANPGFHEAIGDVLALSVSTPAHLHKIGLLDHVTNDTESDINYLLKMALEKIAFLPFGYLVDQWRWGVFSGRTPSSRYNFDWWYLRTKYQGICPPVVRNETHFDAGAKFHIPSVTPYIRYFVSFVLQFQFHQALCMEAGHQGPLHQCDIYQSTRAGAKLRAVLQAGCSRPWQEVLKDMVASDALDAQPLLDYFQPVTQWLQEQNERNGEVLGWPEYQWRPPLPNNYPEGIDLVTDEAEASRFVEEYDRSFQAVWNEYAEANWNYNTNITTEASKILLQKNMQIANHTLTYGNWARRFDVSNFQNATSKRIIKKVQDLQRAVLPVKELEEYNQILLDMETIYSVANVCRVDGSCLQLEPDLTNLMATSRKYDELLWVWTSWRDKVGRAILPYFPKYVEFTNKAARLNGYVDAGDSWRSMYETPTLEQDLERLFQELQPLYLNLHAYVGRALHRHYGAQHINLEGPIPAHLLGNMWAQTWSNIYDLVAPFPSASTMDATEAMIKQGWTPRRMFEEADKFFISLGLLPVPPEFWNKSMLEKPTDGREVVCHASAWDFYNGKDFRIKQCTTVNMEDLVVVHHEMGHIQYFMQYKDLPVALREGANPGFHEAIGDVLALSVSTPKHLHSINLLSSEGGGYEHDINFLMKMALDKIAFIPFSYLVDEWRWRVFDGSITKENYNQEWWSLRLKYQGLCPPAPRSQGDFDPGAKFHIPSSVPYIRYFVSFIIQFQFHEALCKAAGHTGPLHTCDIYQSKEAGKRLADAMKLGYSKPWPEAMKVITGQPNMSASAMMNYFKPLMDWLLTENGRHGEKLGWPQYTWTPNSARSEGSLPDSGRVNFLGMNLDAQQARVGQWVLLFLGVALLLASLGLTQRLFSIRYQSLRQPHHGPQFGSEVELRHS

Measured: IC50

C1CCC(C(CC2CCCCN2)C2CCCCC2)CC1 (stereo not drawn) [PERHEXILINE]
Not Active: all assays above

CC(C)CN(C[C@@H](O)[C@H](Cc1ccccc1)NC(=O)O[C@H]1CCOC1)S(=O)(=O)c1ccc(N)cc1
Not Active: all assays above

Nc1nc2c(ncn2CCC(CO)CO)c(=O)[nH]1 [PENCICLOVIR]
Not Active: all assays above

CN(C)C(=O)Oc1cc(OC(=O)N(C)C)cc(C(O)CNC(C)(C)C)c1 (stereo not drawn) [BAMBUTEROL]
Not Active: all assays above

Cc1ccc(-c2cc(C(F)(F)F)nn2-c2ccc(S(N)(=O)=O)cc2)cc1 [CELECOXIB]
Not Active: all assays above

CCC1(c2ccc(N)cc2)CCC(=O)NC1=O (stereo not drawn) [AMINOGLUTETHIMIDE]
Not Active: all assays above

CCCCN1CCCC[C@H]1C(=O)Nc1c(C)cccc1C [LEVOBUPIVACAINE]
Not Active: all assays above

OC(Cn1cncn1)(Cn1cncn1)c1ccc(F)cc1F [FLUCONAZOLE]
Not Active: all assays above

Cc1cc(C2CCCCC2)n(O)c(=O)c1 [CICLOPIROX]
Not Active: all assays above

Cc1c(C)c2c(c(C)c1O)CC[C@@](C)(CCC[C@H](C)CCC[C@H](C)CCCC(C)C)O2 [ALPHA-TOCOPHEROL]
Not Active: all assays above

Cc1c2oc3c(C)ccc(C(=O)N[C@@H]4C(=O)N[C@H](C(C)C)C(=O)N5CCC[C@H]5C(=O)N(C)CC(=O)N(C)[C@@H](C(C)C)C(=O)O[C@@H]4C)c3nc-2c(C(=O)N[C@@H]2C(=O)N[C@H](C(C)C)C(=O)N3CCC[C@H]3C(=O)N(C)CC(=O)N(C)[C@@H](C(C)C)C(=O)O[C@@H]2C)c(N)c1=O [DACTINOMYCIN] (I: T[dV]P[Sar][NMeV] / II: T[dV]P[Sar][NMeV]; ester I:1-I:C, II:1-II:C; linker I:N-II:N via Actinocin(1to9))
Not Active: all assays above

CC1(C)S[C@@H]2[C@H](NC(=O)Cc3ccccc3)C(=O)N2[C@H]1C(=O)O [PENICILLIN G]
Not Active: all assays above

C[C@H](CCC(=O)O)[C@H]1CC[C@H]2[C@@H]3[C@H](O)C[C@@H]4C[C@H](O)CC[C@]4(C)[C@H]3C[C@H](O)[C@]12C [CHOLIC ACID]
Not Active: all assays above

CN(Cc1ccc(C(C)(C)C)cc1)Cc1cccc2ccccc12 [BUTENAFINE]
Not Active: all assays above

N=C(N)NCCN1CCCCCCC1 [GUANETHIDINE]
Not Active: all assays above

Nc1c(Br)cc(Br)cc1CN[C@H]1CC[C@H](O)CC1 [AMBROXOL]
Not Active: all assays above

NC(=O)N1c2ccccc2CCc2ccccc21
Not Active: all assays above

NCCCCCC(=O)O [AMINOCAPROIC ACID]
Not Active: all assays above

C=C(C)C1(O)OC(=O)C=C1OC (stereo not drawn) [PENICILLIC ACID]
Not Active: all assays above
